Tested on: Vero-E6 cells
Experiment: cells
Format: cell-based
Settings: Chlorocebus sabaeus, Vero C1008, 24 h, read-out: PL_Result

SMILES	activation at 10 µM
COc1cc2c(cc1OC)C(c1ccc(N)cc1)=NNC(=O)C2 [SPE_K42859542]	0.928%
CC(=O)c1ccc2c(c1)N(CCCN1CCN(CCO)CC1)c1ccccc1S2 [SPE_K42938903]	52.6%
CC(C)S(=O)(=O)NC[C@H](C)c1ccc(-c2ccc(CCNS(C)(=O)=O)cc2)cc1 [SPE_K42981054]	-11.8%
O=c1c(O)c(-c2cc(O)c(O)c(O)c2)oc2cc(O)cc(O)c12 [SPE_K43149758]	-18.6%
C[C@@H](NC(=O)c1ncnc(N)c1Cl)c1ncc(C(=O)Nc2cc(C(F)(F)F)c(Cl)cn2)s1 [SPE_K43410529]	-2.41%
O=c1c(-c2ccc(O)cc2)coc2cc(O)cc(O)c12 [SPE_K43797669]	24.8%
N=C(N)NCc1cccc(I)c1 [SPE_K43860855]	-5.07%
NCCc1ccc(O)c(O)c1 [SPE_K43887077]	-4.01%
Cc1ccc2c(c1CCC(=O)O)CC[C@@H](NS(=O)(=O)c1ccc(Cl)cc1)C2 [SPE_K43975632]	0.256%
Cc1cc(-c2nncc3c(C(C)(C)C)c(OCc4ncnn4C)nn23)no1 [SPE_K44022883]	-4.38%
Cc1nc(-c2cn3c(n2)-c2ccc(-c4cnn(C(C)(C)C(N)=O)c4)cc2OCC3)n(C(C)C)n1 [SPE_K44844162]	4.98%
Oc1cc2c(cc1O)CN(C(=S)NCCc1ccc(Cl)cc1)CCC2 [SPE_K44849676]	-5.94%
CCC(C)(C)C(=O)C(=O)N1CCC[C@H]1C(=O)OCCCc1cccnc1 [SPE_K44869961]	2.45%
Cc1ccc(-c2nc3ccc(C)cn3c2CC(=O)N(C)C)cc1 [SPE_K44876623]	-2.13%
CS(=O)(=O)c1ccc(-c2cn3ccccc3n2)cc1 [SPE_K45125084]	-7.32%
O=C1NC(=S)NC(=O)C1C(=O)Nc1ccccc1 [SPE_K45152786]	-1.42%
C[C@H](CCC(=O)NCCS(=O)(=O)O)[C@H]1CC[C@H]2[C@@H]3[C@@H](O)C[C@@H]4C[C@H](O)CC[C@]4(C)[C@H]3CC[C@]12C [SPE_K45245728]	-11.6%
C=C(C)[C@@H]1CC[C@]2(C(=O)O)CC[C@]3(C)[C@H](CC[C@@H]4[C@@]5(C)CC[C@H](O)C(C)(C)[C@@H]5CC[C@]43C)[C@@H]12 [SPE_K45401373]	-11.4%
O=[N+]([O-])c1cc(Cl)ccc1S(=O)(=O)N1CCN(Cc2ccccc2)CC1 [SPE_K45519571]	3.29%
CCN(CC)C(=O)N1CCN(C)CC1 [SPE_K45542189]	3.18%
Cc1cc(N2CCOCC2)ccc1Nc1nc(NC2CCCCC2)c2nc[nH]c2n1 [SPE_K45551181]	-0.298%
CCCCC/C=C\C/C=C\CCCCCCCC(=O)NCCCC(=O)O [SPE_K46254452]	0.426%
CC(C)Oc1ccc(-c2nc(-c3cccc4c3CC[C@@H]4NCCO)no2)cc1C#N [SPE_K46625559]	-0.603%
Cn1ncnc1COc1nn2c(-c3cc(F)ccc3F)nnc2cc1C(C)(C)C [SPE_K46647427]	-14.8%
Cc1[nH]cnc1CN1CCc2c(c3ccccc3n2C)C1=O [SPE_K46742498]	6.83%
CC(=O)Nc1ccc(C(=O)O)cc1 [SPE_K47195926]	3.66%
Cc1c(NC(=O)c2cccnc2)c(=O)n(-c2ccccc2)n1C [SPE_K47407372]	-10.1%

SMILES	activation at 10 µM
Cc1cc2sc(NC(=O)Cc3ccccc3)nc2cc1Cl [SPE_K47409078]	0.438%
COc1ccc(C2C(=O)c3ccccc3C2=O)cc1 [SPE_K47458712]	-11.2%
CC(=O)NC[C@H]1CN(c2ccc(N3CCN(C(=O)CO)CC3)c(F)c2)C(=O)O1 [SPE_K47554101]	-3.34%
Cc1cccc(NC(=O)c2ccc(C(F)(F)F)cc2C(=O)O)n1 [SPE_K47816470]	-2.17%
CC(C)CN(C[C@@H](O)[C@H](Cc1ccccc1)NC(=O)O[C@H]1CCOC1)S(=O)(=O)c1ccc(N)cc1 [SPE_K47827687]	0.458%
NC[C@@H]1CC[C@@H](N)[C@@H](O[C@H]2[C@H](O)[C@@H](O[C@H]3O[C@H](CO)[C@@H](O)[C@H](N)[C@H]3O)[C@H](N)C[C@@H]2N)O1 [SPE_K48427910]	-9.88%
O=C1NC(c2cccc([N+](=O)[O-])c2)=CCN1c1ccccc1O [SPE_K48869804]	1.47%
CCC/C=C1\OC(=O)C2=C1CCC=C2 [SPE_K48875051]	-12.3%
Cc1c(N)cccc1Cn1ccc(OCCc2cccs2)cc1=O [SPE_K48888725]	1.09%
O=C(Oc1ccccc1C(=O)O)c1ccccc1O [SPE_K48892307]	-11.6%
C[C@H](CCC(=O)O)[C@H]1CC[C@H]2[C@@H]3C[C@H](O)[C@@H]4C[C@H](O)CC[C@]4(C)[C@H]3CC[C@]12C [SPE_K49031386]	-3.75%
Nc1nc2ccc(Cl)cc2c2nc(-c3ccco3)nn12 [SPE_K49049886]	7.39%
Cn1cc(-c2cc(Oc3cc(F)c(NC(=O)C4(C(=O)Nc5ccccc5)CC4)cc3F)ccn2)cn1 [SPE_K49246350]	-0.953%
Cc1nc(Nc2ncc(C(=O)Nc3c(C)cccc3Cl)s2)cc(N2CCN(CCO)CC2)n1 [SPE_K49328571]	0.377%
COc1ccc(Cl)c(Nc2nc3ccccc3nc2NS(=O)(=O)c2cccc(NC(=O)C(C)(C)N)c2)c1 [SPE_K49456274]	-4.27%
CCN1CCC(n2cc(CNc3cc(Cl)c4ncc(C#N)c(Nc5ccc(F)c(Cl)c5)c4c3)nn2)CC1 [SPE_K49468759]	33.2%
C1CCC2(CC1)CCNCC2 [SPE_K49545903]	-14.5%
COC(=O)Nc1ccc(-c2nc(N3CCOCC3)c3cnn(C4CCN(Cc5cccnc5)CC4)c3n2)cc1 [SPE_K49900195]	1.79%
CCOc1c2c(c(OCC)c3ccccc13)C(=O)N(c1ccc(CC(=O)NS(=O)(=O)c3ccccc3)cc1)C2 [SPE_K50005760]	-9.22%
C=CC(=O)N1CCC(Oc2cc3c(Nc4ccc(Cl)c(Cl)c4F)ncnc3cc2OC)CC1 [SPE_K50010139]	-3.41%
C[C@@H]1CN(Cc2ncccn2)C[C@H]1c1nc2c(cnn2C2CCOCC2)c(=O)[nH]1 [SPE_K50031829]	-10.7%
CCOc1cc(N2CCC(O)CC2)ccc1Nc1ncc2c(n1)N(C)c1ccccc1C(=O)N2C [SPE_K50387473]	-6.3%
COc1cc2ncnc(Nc3ccc(Oc4ccccc4)cc3)c2cc1OC [SPE_K50495309]	-8.17%
CN(C(=O)c1ccc(F)cc1C(F)(F)F)C1CCN(c2nnc(-c3ccnn3C)c3ccccc23)CC1 [SPE_K50498985]	-8%
CC(C)[C@H](CO)Nc1nc(Nc2cccc(Cl)c2)c2ncn(C(C)C)c2n1 [SPE_K50836978]	1.32%
CCCN1CCCC[C@H]1C(=O)Nc1c(C)cccc1C [SPE_K50938786]	0.0286%
COCCN1CCC(C(=O)NO)(S(=O)(=O)c2ccc(Oc3ccc(OC(F)(F)F)cc3)cc2)CC1 [SPE_K51102532]	-13.6%

SMILES	activation at 10 µM
CNCC(=O)O [SPE_K51263939]	-0.786%
CCCC(CCC)C(=O)NCc1ccc2c(cnn2-c2ccccc2OC)c1 [SPE_K51265828]	1.45%
CC(=O)OCC(=O)[C@H]1CC[C@H]2[C@@H]3CC[C@H]4C[C@H](O)CC[C@]4(C)[C@H]3C(=O)C[C@]12C [SPE_K51751936]	-4.71%
N#Cc1cnc2cnc(NCc3cccnc3)cc2c1Nc1ccc(F)c(Cl)c1 [SPE_K51776215]	4.19%
CN1CC[C@@H](c2c(O)cc(O)c3c(=O)cc(-c4ccccc4Cl)oc23)[C@@H]1CO [SPE_K51791723]	1.15%
CCOCCn1c(C2CCN(CCc3ccc(C(C)(C)C(=O)O)cc3)CC2)nc2ccccc21 [SPE_K51937257]	-5.44%
COc1c(C)cnc(Cn2cnc3c(Cl)nc(N)nc32)c1C [SPE_K51967704]	-7.08%
C[C@]12CC[C@H]3[C@@H](CCC4=CC(=O)CC[C@@H]43)[C@@H]1CC[C@@H]2O [SPE_K52080565]	-3.9%
COc1ccc(F)c(F)c1C(=O)c1cnc(NC2CCN(S(C)(=O)=O)CC2)nc1N [SPE_K52233191]	-6.09%
CNC(=O)[C@H]1O[C@@H](n2cnc3c(NCc4cccc(I)c4)nc(Cl)nc32)[C@H](O)[C@@H]1O [SPE_K52396582]	-2.9%
CC(=O)NNC(=O)N1Cc2ccccc2Oc2ccc(Cl)cc21 [SPE_K52512893]	-10.6%
CC(=O)c1ccc(S(=O)(=O)NC(=O)NC2CCCCC2)cc1 [SPE_K52960356]	6.72%
Nc1nc2[nH]nnc2c(=O)[nH]1 [SPE_K53114651]	-1.39%
CCOC(=O)C1=C[C@]2(CC)CCCN3CCc4c(n1c1ccccc41)[C@@H]32 [SPE_K53318339]	-10.5%
CCOC(=O)c1cc2ccc(O)cc2oc1=O [SPE_K53438416]	-0.478%
OC[C@H]1O[C@@H](c2ccc(Cl)c(Cc3ccc(O[C@H]4CCOC4)cc3)c2)[C@H](O)[C@@H](O)[C@@H]1O [SPE_K53765467]	-10%
CN(CC[C@@H](Oc1ccc(-c2ccccc2)cc1)c1ccc(F)cc1)CC(=O)O [SPE_K53979406]	-9.75%
CC(C)C(N)=O [SPE_K54057105]	-7.86%
c1ccc(C2CC2)c(OCC2=NCCN2)c1 [SPE_K54142781]	-12.4%
Fc1ccc(-c2c3cccc(C(F)(F)F)c3nn2Cc2ccc(F)cc2Cl)cc1 [SPE_K54520417]	-2.25%
Oc1ccc([C@H]2COc3cc(O)ccc3C2)cc1 [SPE_K54847683]	-12.7%
NC(=O)c1cccc2cn(-c3ccc([C@@H]4CCCNC4)cc3)nc12 [SPE_K54955827]	-6.71%
Cc1nc(NC(=O)N2CCC[C@H]2C(N)=O)sc1-c1ccnc(C(C)(C)C(F)(F)F)c1 [SPE_K54997624]	12.6%
Nc1ncn([C@@H]2O[C@H](CO)[C@@H](O)[C@H]2O)c(=O)n1 [SPE_K55026842]	-12.3%
CC[C@@]1(O)C(=O)OCc2c1cc1n(c2=O)Cc2cc3c(CN(C)C)c(O)ccc3nc2-1 [SPE_K55696337]	-1.88%
CCn1cnc2c(Nc3cccc(Cl)c3)nc(N[C@@H]3CCCC[C@@H]3N)nc21 [SPE_K56239177]	0.0914%
